Measured values reported in patent US20120122935A1, “COMPOSITIONS AND METHODS FOR TREATING NECROTIZING ENTEROCOLITIS” (NATIONWIDE CHILDREN'S HOSPITAL, INC., priority 2007, published 2012).
Marks after values point to notes of the source that are not given here.

Experiments:
[1] = system: Human fetal intestinal epithelial cells (FHS741NT); assay: in vitro model of immature intestinal wound restitution (scrape wound plus LPS); assay type: cell-based; details: 50 mg/ml nicotinamide after wounding and LPS administration, FIG. 14
Experimental: We have established cell culture conditions for neonatal human intestinal epithelial cells (IEC), which we have developed as a platform for investigating cellular responses and identifying potential protection strategies. Human fetal intestinal epithelial cells (FHS741NT), passage seven or less, were seeded (40,000 cells/ml) in poly-1-lysine coated 8-chamber slides (Labtek II; Nunc, Rochester, N.Y.) in media (DMEM containing 10% FBS, L-glutamine (2 mM), EGF (30 ng/ml), and insulin (10 μg/ml)) and allowed to reach confluence. A wound was created in the cell monolayer using a specific cell scraper device attached to a microscope. The microscope stage controls allow the creation of a reproducible straight wound in each slide chamber (width 500 μm). After wounding, media was replaced with media (DMEM with 10% FBS, L-glutamine (2 mM)) containing the appropriate treatment compound. […]
Digital images of wounds were captured using a 10× objective on an inverted microscope (Olympus, Melville, N.Y.) with an attached digital camera (Diagnostic Instruments, Sterling Heights, Mich.). […] For each subsequent image, the AOI was placed over the position of the original wound and the area occupied by cells was measured. […] Results were expressed as mean % closure where % closure=area of wound occupied by cells/area of original wound. […]

newborn rat model of NEC = newborn rat model of NEC (formula feeding, hypoxia, hypothermia, LPS); assay type: in vivo; details: for Percent of Pups with NEC (any grade) / Percent of Pups with NEC Grade >2: one oral dose each day, n=8; for overall survival of pups exposed to the rat NEC model: nicotinamide treated vs control pups, FIG. 8
Description: We have established valuable preclinical animal models that mimic intestinal injury in NEC. (Caplan M S, Hedlund E, Adler L, et al. Role of asphyxia and feeding in a neonatal rat model of necrotizing enterocolitis. Pediatr Pathol. November-December 1994; 14(6):1017-1028.) The model involves exposing neonatal rat pups to hypoxia, hypothermia, and formula feeding, leading to physiological stress and intestinal injury that pathologically is very similar to NEC in infants. Pups are delivered by cesarean section at E20 from timed pregnant dams. Pups are fed every 3 h with one skipped feed at 4 am (7 times/day) by oral gavage with 100 ul of a hypertonic formula (Similac and Esbilac). At 8 h post-delivery, pups are treated with 2 mg/kg LPS orally with feeding. Beginning on DOL 1, pups are fed every 3 h and subjected to hypoxic (2 min in 100% nitrogen) and hypothermal (10 min at 4° C.) stress twice daily immediately after feeds. Pups are sacrificed at DOL 4, or when discomfort warrants. Upon sacrifice, the distal ileum is collected in two sections. One section is immediately fixed in 10% neutral buffered formalin, and the other is snap-frozen in liquid nitrogen. Tissues are fixed for 48 h before histological processing and embedding in paraffin.
Each photomicrograph represents a different severity grading score of intestinal injury in this model as follows: (A)=Grade 0 or normal, (B)=Grade 1 or minimal intestinal damage, (C)=Grade 2 or minimal/modest intestinal damage, (D)=Grade 3 or moderate intestinal injury, (E) Grade 4 or severe intestinal injury. This system is based on the previously published intestinal injury grading system for the newborn rat intestinal model of NEC induced by formula feeding-hypoxia-hypothermia.

[2] = doses of 500 mg/kg or more in animal preparations; cited from earlier work

NC(=O)c1cccnc1 [Nicotinamide, nicotinamide]
wound healing (epithelial restitution) [1]: improves wound healing
wound healing (epithelial restitution) ([1]; listed as nicotinamide): improved wound healing
Percent of Pups with NEC (any grade) (newborn rat model of NEC; 50 mg/kg nicotinamide): 12.5%*
Percent of Pups with NEC Grade >2 (newborn rat model of NEC; 50 mg/kg nicotinamide): 12.5%
Percent of Pups with NEC (any grade) (newborn rat model of NEC; 500 mg/kg nicotinamide): 0%*
Percent of Pups with NEC Grade >2 (newborn rat model of NEC; 500 mg/kg nicotinamide): 0%
overall survival of pups exposed to the rat NEC model (newborn rat model of NEC): improved overall survival
overall survival of pups exposed to the rat NEC model (newborn rat model of NEC; listed as nicotinamide): improves survival
evidence of NEC Grade 2 or greater (newborn rat model of NEC; one oral dose daily at 500 mg/kg): no evidence of NEC Grade 2 or greater
protection against development of NEC / intestinal injury (newborn rat model of NEC; one oral dose of 50 or 500 mg/kg each day): strikingly protective against the development of any NEC
reported toxicities [2]: little or no reported toxicities
